# Test results as given in article PMC6001238, “Iterative Chemical Engineering of Vancomycin Leads to Novel Vancomycin Analogs With a High in Vitro Therapeutic Index” (Frontiers in Microbiology, 2018).
# Assays:
# E. faecalis VSE 1 = experiment: MIC, broth microdilution, vancomycin-sensitive E. faecalis (VSE 1); format: cell-based, Enterococcus faecalis; conditions: for MIC: Enterococcus faecalis VSE 1 (vancomycin-sensitive), read-out: MIC; for MIC-fold improvement vs. vancomycin: VSE 1, ratio of MIC of vancomycin and MIC of analogue
# Procedure, shortened: (§1)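 Assayed by broth microdilution under CLSI antimicrobial testing rules. One case paired the analog or control drug with vancomycin at a 10 μM final concentration; water and inoculum-free broth were controls.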
# E. faecalis VRE 6 = experiment: MIC, broth microdilution, vancomycin-resistant E. faecalis VRE 6 (VanA); format: cell-based, Enterococcus faecalis; conditions: for MIC: Enterococcus faecalis VRE 6 (vancomycin-resistant), read-out: MIC; for MIC-fold improvement vs. vancomycin: VRE 6, ratio of MIC of vancomycin and MIC of analogue
# Procedure, shortened: as §1
# E. faecalis VRE 53 = experiment: MIC, broth microdilution, vancomycin-resistant E. faecalis VRE 53 (VanA); format: cell-based, Enterococcus faecalis; conditions: for MIC: Enterococcus faecalis VRE 53 (vancomycin-resistant), read-out: MIC; for MIC-fold improvement vs. vancomycin: VRE 53, ratio of MIC of vancomycin and MIC of analogue
# Procedure, shortened: as §1
# E. faecalis VRE 29 = experiment: MIC, broth microdilution, vancomycin-resistant E. faecalis VRE 29 (VanA); format: cell-based, Enterococcus faecalis; conditions: for MIC: Enterococcus faecalis VRE 29 (vancomycin-resistant), read-out: MIC; for MIC-fold improvement vs. vancomycin: VRE 29, ratio of MIC of vancomycin and MIC of analogue
# Procedure, shortened: as §1
# E. faecalis VRE 37 = experiment: MIC, broth microdilution, vancomycin-resistant E. faecalis VRE 37 (VanA); format: cell-based, Enterococcus faecalis; conditions: for MIC: Enterococcus faecalis VRE 37 (vancomycin-resistant), read-out: MIC; for MIC-fold improvement vs. vancomycin: VRE 37, ratio of MIC of vancomycin and MIC of analogue
# Procedure, shortened: as §1
# [1] = test system: Murine leukemia (L1210) cells; experiment: Cytostatic activity, L1210 cell proliferation; format: cell-based; conditions: mean ± SD of three experiments; highest concentration tested 250 µM; 2 days; read-out: Toxicity (IC50) L1210
# Procedure, shortened: (§2)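 Suspensions (300,000–500,000 cells/mL) combined with equal volumes of diluted compound; 37°C; L1210 2 d / CEM 3 d / HeLa 4 d; counted by Coulter counter; IC50 vs untreated wells.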
# [2] = test system: human T-lymphocyte (CEM) cells; experiment: Cytostatic activity, CEM cell proliferation; format: cell-based; conditions: mean ± SD of three experiments; highest concentration tested 250 µM; 3 days; read-out: Toxicity (IC50) CEM
# Procedure, shortened: as §2
# [3] = test system: human cervix carcinoma (HeLa) cells; experiment: Cytostatic activity, HeLa cell proliferation; format: cell-based; conditions: mean ± SD of three experiments; highest concentration tested 250 µM; 4 days; read-out: Toxicity (IC50) HeLa
# Procedure, shortened: as §2
# [4] = test system: L1210, CEM and HeLa cell lines; experiment: Cytostatic activity, average or summary over L1210, CEM and HeLa; format: cell-based; conditions: average of L1210, CEM and HeLa; read-out: Toxicity (IC50) Average
# Procedure, shortened: as §2
# [5] = test system: S. aureus VSSA (ATCC 6538); experiment: MIC, broth microdilution, vancomycin-sensitive S. aureus (VSSA/MSSA, ATCC 6538); format: cell-based, Staphylococcus aureus; conditions: for MIC: Staphylococcus aureus VSSA, read-out: MIC; for MIC-fold improvement vs. vancomycin: VSSA, ratio of MIC of vancomycin and MIC of analogue
# Procedure, shortened: as §1
# S. aureus VISA/HIP5827 = experiment: MIC, broth microdilution, vancomycin-intermediate S. aureus VISA HIP5827; format: cell-based, Staphylococcus aureus; conditions: for MIC: Staphylococcus aureus VISA/HIP5827, read-out: MIC; for MIC-fold improvement vs. vancomycin: VISA/HIP5827, ratio of MIC of vancomycin and MIC of analogue
# Procedure, shortened: as §1
# S. aureus VRSA = experiment: MIC, broth microdilution, vancomycin-resistant S. aureus (VRSA); format: cell-based, Staphylococcus aureus; conditions: for MIC: Staphylococcus aureus VRSA, read-out: MIC; for MIC-fold improvement vs. vancomycin: VRSA, ratio of MIC of vancomycin and MIC of analogue
# Procedure, shortened: as §1
# MRSA KS2 = experiment: MIC, broth microdilution, MRSA KS2; format: cell-based, Staphylococcus aureus; conditions: for MIC-fold improvement vs. vancomycin: MRSA KS2, ratio of MIC of vancomycin and MIC of analogue; for MIC: Staphylococcus aureus MRSA KS2, read-out: MIC
# Procedure, shortened: as §1
# MRSA KS6 = experiment: MIC, broth microdilution, MRSA KS6; format: cell-based, Staphylococcus aureus; conditions: for MIC-fold improvement vs. vancomycin: MRSA KS6, ratio of MIC of vancomycin and MIC of analogue; for MIC: Staphylococcus aureus MRSA KS6, read-out: MIC
# Procedure, shortened: as §1
# MRSA KS89 = experiment: MIC, broth microdilution, MRSA KS89; format: cell-based, Staphylococcus aureus; conditions: for MIC-fold improvement vs. vancomycin: MRSA KS8, ratio of MIC of vancomycin and MIC of analogue; for MIC: Staphylococcus aureus MRSA KS8, read-out: MIC
# Procedure, shortened: as §1
# MRSA KS1 = experiment: MIC, broth microdilution, MRSA KS1; format: cell-based, Staphylococcus aureus; conditions: for MIC-fold improvement vs. vancomycin: MRSA KS1, ratio of MIC of vancomycin and MIC of analogue; for MIC: Staphylococcus aureus MRSA KS1, read-out: MIC
# Procedure, shortened: as §1
# [6] = test system: Clostridium difficile ATJ ribotype 014/20; experiment: MIC, plate drop assay, C. difficile ATJ ribotype 014/20; format: cell-based; conditions: for MIC-fold improvement vs. vancomycin: C. difficile ATJ ribotype 014/20; for MIC: C. difficile ATJ ribotype 014/20, plate drop assay
# Description: (§3) Bacterial lawns of both C. difficile strains were prepared by adding 0.5 mL overnight culture to 8 mL sloppy BHI agar (0.4% agar) supplemented with 1.5 g/L CaCl2⋅2H2O and 81.2 g/L MgCl2⋅6H2O, and pouring the mixture into Petri plates. A twofold dilution series of the selected vancomycin analogs, vancomycin ([…]) and daptomycin (25 μM) was spotted (10 μL) on the bacterial lawn. Spots were air-dried and the plates were incubated overnight at 37°C in an anaerobic cabinet. Ultrapure water was included as negative control. The assay was performed in triplicate. Inhibition was observed by cleared spots.
# [7] = test system: Clostridium difficile AIU ribotype 027; experiment: MIC, plate drop assay, C. difficile AIU ribotype 027; format: cell-based; conditions: for MIC-fold improvement vs. vancomycin: C. difficile AIU ribotype 027; for MIC: C. difficile AIU ribotype 027, plate drop assay
# Description: as §3
Structure (SMILES),MIC (E. faecalis VSE 1) [µM],MIC-fold improvement vs. vancomycin (E. faecalis VSE 1),MIC (E. faecalis VRE 6) [µM],MIC-fold improvement vs. vancomycin (E. faecalis VRE 6),MIC (E. faecalis VRE 53) [µM],MIC-fold improvement vs. vancomycin (E. faecalis VRE 53),MIC (E. faecalis VRE 29) [µM],MIC-fold improvement vs. vancomycin (E. faecalis VRE 29),MIC (E. faecalis VRE 37) [µM],IC50 [1] [µM],IC50 [2] [µM],IC50 [3] [µM],IC50 [4] [µM],MIC [5] [µM],MIC-fold improvement vs. vancomycin [5],MIC (S. aureus VISA/HIP5827) [µM],MIC-fold improvement vs. vancomycin (S. aureus VISA/HIP5827),MIC (S. aureus VRSA) [µM],MIC-fold improvement vs. vancomycin (S. aureus VRSA),MIC-fold improvement vs. vancomycin (MRSA KS2),other results
CNC(CC(C)C)C(=O)NC1C(=O)NC(CC(N)=O)C(=O)NC2C(=O)NC3C(=O)NC(C(=O)NC(C(=O)NCCNC(=O)C=Cc4ccccc4)c4cc(O)cc(O)c4-c4cc3ccc4O)C(O)c3ccc(c(Cl)c3)Oc3cc2cc(c3OC2OC(CO)C(O)C(O)C2OC2CC(C)(N)C(O)C(C)O2)Oc2ccc(cc2Cl)C1O (centres unmarked) [Vanc-21],0.39,4,1.56,128,12.5,32,12.5,32,12.5,> 250,> 250,> 250,> 250,0.78,1,0.78,8,1.56,64,2,MIC (MRSA KS2): 0.39 µM; MIC-fold improvement vs. vancomycin (MRSA KS6): 1; MIC (MRSA KS6): 0.78 µM; MIC-fold improvement vs. vancomycin (MRSA KS89): 1; MIC (MRSA KS89): 0.78 µM; MIC-fold improvement vs. vancomycin (MRSA KS1): 1; MIC (MRSA KS1): 0.78 µM; MIC-fold improvement vs. vancomycin [6]: <1.4; MIC [6]: >25 µM; MIC-fold improvement vs. vancomycin [7]: 4
CCCCC#Cc1ccc(/C=C/C(=O)NCCNC(=O)[C@H]2NC(=O)[C@H]3NC(=O)[C@H](NC(=O)[C@@H]4NC(=O)[C@H](CC(N)=O)NC(=O)[C@H](NC(=O)[C@@H](CC(C)C)NC)[C@H](O)c5ccc(c(Cl)c5)Oc5cc4cc(c5O[C@@H]4O[C@H](CO)[C@@H](O)[C@H](O)[C@H]4O[C@H]4C[C@](C)(N)[C@H](O)[C@H](C)O4)Oc4ccc(cc4Cl)[C@H]3O)c3ccc(O)c(c3)-c3c(O)cc(O)cc32)cc1 [Vanc-48],0.78,2,1.56,128,6.25,64,3.13,128,3.13,142 ± 21,83 ± 11,> 250,158,0.20,4,1.56,4,1.56,64,4,MIC-fold improvement vs. vancomycin (E. faecalis VRE 37): 128; MIC (MRSA KS2): 0.20 µM; MIC-fold improvement vs. vancomycin (MRSA KS6): 0.25; MIC (MRSA KS6): 3.13 µM; MIC-fold improvement vs. vancomycin (MRSA KS89): 2; MIC (MRSA KS89): 0.39 µM; MIC-fold improvement vs. vancomycin (MRSA KS1): >8; MIC (MRSA KS1): <0.10 µM; MIC-fold improvement vs. vancomycin [6]: up to 45; MIC [6]: 0.78 µM; MIC-fold improvement vs. vancomycin ([6]; listed as Vanc- 48): 45; MIC-fold improvement vs. vancomycin [7]: ≤ 58; MIC [7]: 0.78 µM; MIC-fold improvement vs. vancomycin ([7]; listed as Vanc- 48): 58
CN[C@H](CC(C)C)C(=O)N[C@H]1C(=O)N[C@@H](CC(N)=O)C(=O)N[C@H]2C(=O)N[C@H]3C(=O)N[C@H](C(=O)N[C@H](C(=O)NCC(=O)Nc4ccc(Nc5ccccc5)cc4)c4cc(O)cc(O)c4-c4cc3ccc4O)[C@H](O)c3ccc(c(Cl)c3)Oc3cc2cc(c3O[C@@H]2O[C@H](CO)[C@@H](O)[C@H](O)[C@H]2O[C@H]2C[C@](C)(N)[C@H](O)[C@H](C)O2)Oc2ccc(cc2Cl)[C@H]1O [Vanc-43],0.39,4,1.56,128,25,16,6.25,64,6.25,> 250,> 250,> 250,> 250,0.39,2,1.56,4,1.56,64,2,MIC-fold improvement vs. vancomycin (E. faecalis VRE 37): 64; MIC (MRSA KS2): 0.39 µM; MIC-fold improvement vs. vancomycin (MRSA KS6): 0.25; MIC (MRSA KS6): 3.13 µM; MIC-fold improvement vs. vancomycin (MRSA KS89): 2; MIC (MRSA KS89): 0.39 µM; MIC-fold improvement vs. vancomycin (MRSA KS1): 2; MIC (MRSA KS1): 0.39 µM; MIC-fold improvement vs. vancomycin [6]: 22; MIC-fold improvement vs. vancomycin [7]: 29
CN[C@H](CC(C)C)C(=O)N[C@H]1C(=O)N[C@@H](CC(N)=O)C(=O)N[C@H]2C(=O)N[C@H]3C(=O)N[C@H](C(=O)N[C@H](C(=O)NCCNC(=O)/C=C/c4ccc(F)cc4)c4cc(O)cc(O)c4-c4cc3ccc4O)[C@H](O)c3ccc(c(Cl)c3)Oc3cc2cc(c3O[C@@H]2O[C@H](CO)[C@@H](O)[C@H](O)[C@H]2O[C@H]2C[C@](C)(N)[C@H](O)[C@H](C)O2)Oc2ccc(cc2Cl)[C@H]1O [Vanc-22],0.39,4,1.56,128,25,16,12.5,32,12.5,> 250,> 250,76 ± 11,192,0.39,2,1.56,4,3.13,32,2,MIC (MRSA KS2): 0.39 µM; MIC-fold improvement vs. vancomycin (MRSA KS6): 2; MIC (MRSA KS6): 0.39 µM; MIC-fold improvement vs. vancomycin (MRSA KS89): 2; MIC (MRSA KS89): 0.39 µM; MIC-fold improvement vs. vancomycin (MRSA KS1): 2; MIC (MRSA KS1): 0.39 µM; MIC-fold improvement vs. vancomycin [6]: 5.6; MIC [6]: 6.25 µM; MIC-fold improvement vs. vancomycin [7]: 7; MIC [7]: 6.25 µM
